Results as given in patent US11160280B2, “Pesticial compounds” (BASF SE, priority 2017, dated 2021).

Tests used:
Assay type in all cases: in vivo
[1] = tested on: yellow fever mosquito (Aedes aegypti); assay: whole plant or invertebrate; conditions: 48 h, larval mortality visually assessed after 2 days, read-out: mortality in comparison with untreated controls
Protocol: Example B1: Action on Yellow Fever Mosquito (Aedes aegypti)
For evaluating control of yellow fever mosquito (Aedes aegypti) the test unit consisted of 96-well-microtiter plates containing 200 μl of tap water per well and 5-15 freshly hatched A. aegypti larvae.
The active compounds were formulated using a solution containing 75% (v/v) water and 25% (v/v) DMSO. Different concentrations of formulated compounds or mixtures were sprayed onto the insect diet at 2.5 μl, using a custom built micro atomizer, at two replications.
After application, microtiter plates were incubated at 28+1° C., 80+5% RH for 2 days. Larval mortality was then visually assessed.

[2] = tested on: boll weevil (Anthonomus grandis); assay: Action on boll weevil (Anthonomus grandis), eggs on insect diet in microtiter plates; conditions: 120 h, egg and larval mortality after 5 days, read-out: mortality in comparison with untreated controls
Protocol: Example B3: Action on Boll Weevil (Anthonomus grandis)
For evaluating control of boll weevil (Anthonomus grandis) the test unit consisted of 96-well-microtiter plates containing an insect diet and 5-10 A. grandis eggs.
The compounds were formulated using a solution containing 75% v/v water and 25% v/v DMSO. Different concentrations of formulated compounds were sprayed onto the insect diet at 5 μl, using a custom built micro atomizer, at two replications.
After application, microtiter plates were incubated at about 25±1° C. and about 75±5% relative humidity for 5 days. Egg and larval mortality was then visually assessed.

[3] = tested on: tobacco budworm (Heliothis virescens); assay: Action on tobacco budworm (Heliothis virescens), eggs on insect diet in microtiter plates; conditions: 120 h, egg and larval mortality after 5 days, read-out: mortality in comparison with untreated controls
Protocol: Example B5: Action on Tobacco Budworm (Heliothis virescens)
For evaluating control of tobacco budworm (Heliothis virescens) the test unit consisted of 96-well-microtiter plates containing an insect diet and 15-25 H. virescens eggs.
The compounds were formulated using a solution containing 75% v/v water and 25% v/v DMSO. Different concentrations of formulated compounds were sprayed onto the insect diet at 10 μl, using a custom built micro atomizer, at two replications.
After application, microtiter plates were incubated at about 28±1° C. and about 80±5% relative humidity for 5 days. Egg and larval mortality was then visually assessed.

[4] = tested on: Diamond Back Moth (Plutella xylostella); assay: Action on diamond back moth (Plutella xylostella), cabbage leaf dip; conditions: foliar, 3rd instar larvae on dipped cabbage leaves, mortality 72 hours after treatment, read-out: mortality in comparison with untreated controls
Protocol: Example B6: Action on Diamond Back Moth (Plutella xylostella)
The active compound is dissolved at the desired concentration in a mixture of 1:1 (vol:vol) distilled water:acetone. Surfactant (Kinetic® HV) is added at a rate of 0.01% (vol/vol). The test solution is prepared at the day of use.
Leaves of cabbage were dipped in test solution and air-dried. Treated leaves were placed in petri dishes lined with moist filter paper and inoculated with ten 3rd instar larvae. Mortality was recorded 72 hours after treatment. Feeding damages were also recorded using a scale of 0-100%.

[5] = tested on: Southern Armyworm (Spodoptera eridania), 2nd Instar Larvae; assay: Action on southern armyworm (Spodoptera eridania), 2nd instar larvae on sprayed lima bean plants; conditions: 96 h, 2nd instar larvae on lima bean plants, 4 days after treatment, read-out: mortality in comparison with untreated controls
Protocol: Example B7: Action on Southern Armyworm (Spodoptera eridania), 2nd Instar Larvae
The active compounds were formulated by a Tecan liquid handler in 100% cyclohexanone as a 10,000 ppm solution supplied in tubes. The 10,000 ppm solution was serially diluted in 100% cyclohexanone to make interim solutions. These served as stock solutions for which final dilutions were made by the Tecan in 50% acetone:50% water (v/v) into 10 or 20 ml glass vials. A nonionic surfactant (Kinetic®) was included in the solution at a volume of 0.01% (v/v). The vials were then inserted into an automated electrostatic sprayer equipped with an atomizing nozzle for application to plants/insects.
Lima bean plants (variety Sieva) were grown 2 plants to a pot and selected for treatment at the 1st true leaf stage. Test solutions were sprayed onto the foliage by an automated electrostatic plant sprayer equipped with an atomizing spray nozzle. The plants were dried in the sprayer fume hood and then removed from the sprayer. Each pot was placed into perforated plastic bags with a zip closure. About 10 to 11 armyworm larvae were placed into the bag and the bags zipped closed. Test plants were maintained in a growth room at about 25° C. and about 20-40% relative humidity for 4 days, avoiding direct exposure to fluorescent light (24 hour photoperiod) to prevent trapping of heat inside the bags. Mortality and reduced feeding were assessed 4 days after treatment, compared to untreated control plants.

CC(C)c1ccccc1N1C(=O)CS/C1=N\N=C\c1ccc2c(C(=O)Nc3ccc(OC(F)(F)F)cc3)nn(C)c2c1 [Example C-8, 6-[(E)-[(Z)-[3-(2-isopropylphenyl)-4-oxo-thiazolidin-2-ylidene]hydrazono]methyl]-1-methyl-N-[4-(trifluoromethoxy)phenyl]indazole-3-carboxamide]
≥ 75%: mortality at 800 ppm [1] | mortality at 800 ppm [2] | mortality at 800 ppm [3] | mortality at 500 ppm [4] | mortality at 300 ppm [5]

CC(C)c1ccccc1NC(=S)N/N=C/c1ccc2c(COc3ccc(OC(F)(F)F)cc3)noc2c1 [Example C-24, 1-(2-isopropylphenyl)-3-[(E)-[3-[[4-(trifluoromethoxy)phenoxy]methyl]-1,2-benzoxazol-6-yl]methyleneamino]thiourea]
≥ 75%: mortality at 800 ppm [2] | mortality at 800 ppm [3] | mortality at 500 ppm [4]

CC(C)c1ccccc1N1C(=O)CS/C1=N\N=C\c1ccc2c(COc3ccc(OC(F)(F)F)cc3)noc2c1 [Example C-25, (2Z)-3-(2-isopropylphenyl)-2-[(E)-[3-[[4-(trifluoromethoxy)phenoxy]methyl]-1,2-benzoxazol-6-yl]methylenehydrazono]thiazolidin-4-one]
≥ 75%: mortality at 800 ppm [1] | mortality at 800 ppm [2] | mortality at 800 ppm [3] | mortality at 500 ppm [4]

CC(C)c1ccccc1NC(=S)NN=Cc1cc(F)c2c(C(=O)N(C)c3ccc(OC(F)(F)F)cc3)nn(C)c2c1 [Example C-18, 4-fluoro-6-[[(2-isopropylphenyl)carbamothioylhydrazono]methyl]-N,1-dimethyl-N-[4-(trifluoromethoxy)phenyl]indazole-3-carboxamide]
≥ 75%: mortality at 800 ppm [2] | mortality at 800 ppm [3] | mortality at 500 ppm [4] | mortality at 300 ppm [5]

CO[C@@H]1[C@@H](OC)[C@H](C)O[C@@H](OC(=O)Nc2ccc3c(NC(=O)c4ccc(OC(F)(F)F)cc4)nn(C)c3c2)[C@@H]1OC [Example C-5, [(2S,3R,4R,5S,6S)-3,4,5-trimethoxy-6-methyl-tetrahydropyran-2-yl] N-[1-methyl-3-[[4-(trifluoromethoxy)benzoyl]amino]indazol-6-yl]carbamate]
≥ 75%: mortality at 800 ppm [1] | mortality at 800 ppm [2]

CC(C)c1ccccc1NC(=S)N/N=C/c1ccc2c(COc3ccc(OC(F)(F)F)cc3)nsc2c1 [Example C-22, 1-(2-isopropylphenyl)-3-[(E)-[3-[[4-(trifluoromethoxy)phenoxy]methyl]-1,2-benzothiazol-6-yl]methyleneamino]thiourea]
≥ 75%: mortality at 800 ppm [2] | mortality at 800 ppm [3] | mortality at 500 ppm [4] | mortality at 300 ppm [5]

CC(C)c1ccccc1NC(=S)NN=Cc1cc(F)c2c(C(=O)Nc3ccc(OC(F)(F)F)cc3)nn(C)c2c1 [Example C-17, 4-fluoro-6-[[(2-isopropylphenyl)carbamothioylhydrazono]methyl]—1-methyl-N-[4-(trifluoromethoxy)phenyl]indazole-3-carboxamide]
≥ 75%: mortality at 800 ppm [2] | mortality at 800 ppm [3] | mortality at 300 ppm [5]

CC(C)c1ccccc1N1C(=O)CS/C1=N\N=C\c1ccc2c(COc3ccc(OC(F)(F)F)cc3)nsc2c1 [Example C-23, (2Z)-3-(2-isopropylphenyl)-2-[(E)-[3-[[4-(trifluoromethoxy)phenoxy]methyl]-1,2-benzothiazol-6-yl]methylenehydrazono]thiazolidin-4-one]
≥ 75%: mortality at 800 ppm [2] | mortality at 800 ppm [3] | mortality at 500 ppm [4] | mortality at 300 ppm [5]
